Read-outs that look alike come from different tables or passages of the source.
Legend:
IL-1beta = assay: LPS-stimulated interleukin release from human mononuclear cells, ELISA (IL-1beta); type: cell-based; settings: 10 µmol/l, 20-22 h, read-out: % Hemmung der Interleukin-Freisetzung
Method: (§1) 5. Freisetzung von Interleukinen (insbesondere IL-1β) aus humanen mononuklearen Zellen
(§2) Die erfindungsgemäßen Verbindungen haben eine starke Hemmwirkung auf die Freisetzung von Interleukinen aus Humanzellen. Dies ist von großer pharmakologischer Bedeutung weil Interleukine die unerwünschte Degradation der Knorpelmatrix auslösen können.
(§3) 10 ml Humanblut, stabilisiert mit 1 ml 3,8 %iger Natriumcitrat-Lösung, werden mit 10 ml PM16 (Serva, Heidelberg) verdünnt und mit 15 ml Lymphoprep (Dr. Molter GmbH, Heidelberg) unterschichtet. Die Proben werden 40 Minuten bei 400 xg (1600 rpm Minifuge 2, Heraeus, Osterode) zentrifugiert (Raumtemperatur). Die mononuklearen Zellen sind als weißer Ring an der Grenze Lymphoprep/Plasma sichtbar. Dieser Ring wird mit einer Spritze vorsichtig entnommen, mit dem gleichen Volumen PM16 verdünnt und 10 Minuten bei 400 xg zentrifugiert. Der Niederschlag wird mit ∼ 10 ml RPMI 1640 (+ 300 mg/l L-Glutamin, Gibco, Eggenstein) gewaschen. Nach Resuspendieren der Zellen in ∼ 1 ml RPMI 1640 (+ 300 mg/l L-Glutamin, + 25 mM HEPES, + 100 µg/ml Streptomycin, + 100 µg/ml Penicillin) wird die Zelldichte mit einem Coulter Counter JT (Coulter Diagnostics) bestimmt und auf 5 * 10⁶/ml eingestellt. Die Zellen bestehen typischerweise aus 90 % Lymphozyten und 10 % Monozyten.
(§4) 230 µl mononukleare Zellen werden mit 10 µl Testsubstanz (10 µM in DMSO/Wasser 1/10) und 10 µl Lipopolysaccharide (500 µg gelöst in 1 ml Dimethylsulfoxid (DMSO) und vor Testbeginn 1/10 mit Wasser verdünnt, von Salmonella abortus equi, Sigma, Deisenhofen) 20-22 Stunden bei 37°C; 5 % CO₂ inkubiert. Die Proben werden in einem Eisbad auf 0°C abgekühlt und in einer Sigma-Zentrifuge zentrifugiert (2 Minuten; 2000 rpm). Aliquote des Überstandes werden mit einem kommerziell erhältlichen ELISA (Biermann, Bad Nauheim) bestimmt.

Chondrozyten [1] = assay: IL-1-induced chondrocytic chondrolysis in chondrocyte agarose culture, 35S-sulfate incorporation; settings: agarose cell culture with 5 u/ml human rec. IL-1 alpha; factor relative to IL-1 treated control
Rattenlebermikrosomen = assay: Inhibition of microsomal lipid peroxidation (malondialdehyde/thiobarbituric acid); type: biochemical, Ratte; settings: rat liver microsomes, FeSO₄ start, 10 min 37°C; read-out: IC50 Mikrosomale Lipidperoxidation
Method: 4. Hemmung der Mikrosomalen Lipidperoxidation […]
Alle Schritte werden bei 0°C durchgeführt. Die Leber einer Ratte wird, um alles Hämoglobin zu entfernen, mit 0,9 % NaCl-Lösung gründlich gespült. Die grob zerkleinerte Leber wird dann in 10 mM Tris/HCl pH 7,4; 250 mM Saccharose (10 ml Puffer/g Leber) gepottert. Zunächst wird 5 Minuten bei 600xg zentrifugiert. Der Überstand wird dann 10 min bei 12000xg zentrifugiert und wird mit festem CaCl₂ (117,6 mg/100 ml) auf eine Konzentration von 8 mM eingestellt. Durch Zentrifugieren bei 25000 xg (15 min) wird ein Mikrosomenniederschlag gewonnen. Dieser Niederschlag wird im gleichen Volumen Puffer (10 mM Tris/HCl pH 7,4; 150 mM KCl) rehomogenisiert und erneut 15 min bei 25000 xg zentrifugiert.
Ein Testansatz besteht aus 20 µl Mikrosomen (100 mg/ml), vgl. oben, gelöst in Puffer (250 mM Tris/HCl pH 6,6, 750 mM KCl), 10 µl 50 mM MgCl₂, 10 µl 200 mM Isocitronensäure, 10 µl 4mM NADP (3,028 mg/ml Wasser), 10 µl 25 mM Niacinamid, 10 µl Isocitratdehydrogenase (1:100 verdünnt) und 20 µl Wasser oder Testsubstanz. Gestartet wird die Reaktion mit 10 µl 0,25 mM FeSO₄. Die Inkubation dauert 10 Minuten und erfolgt bei 37°C. Gestoppt wird mit 500 µl eiskalter 20 %iger Trichloressigsäure. Entstandenes Malondialdehyd wird durch Zugabe von 500 µl 0,67 %iger Thiobarbitursäure und 30 Minuten Inkubation bei 90°C in eine pinkfarbene Verbindung überführt, die bei 532 nm gemessen wird. Die Extinktion im Kontrollansatz ohne Prüfpräparat wird auf 0 % Hemmung gesetzt, während das völlige Verschwinden des Signals 100 % Hemmung bedeutet.

Chondrozyten [2] = assay: Stimulation of cartilage matrix (proteoglycan) synthesis in chondrocyte agarose culture, 35S-sulfate incorporation; type: cell-based, Rinder; settings: Chondrocyte, read-out: Stimulationsfaktor der Proteoglykansynthese
Excerpt: 1. Wirksamkeit in der Synthese-Stimulierung von Knorpel-Matrix, Prüfung in der Chondrozyten-Kultur
Zellen: Den Fußgelenken frisch geschlachteter Rinder werden der hyaline Knorpel entnommen, mit Pronase (Boehringer Mannheim) und Collagenase (Sigma), die native Matrix enzymatisch abgebaut, und die Chondrozyten in 1 %iger "low melting Agarose" in 24er Multiwell-Schalen in einer Zelldichte von 4 x 10⁶ pro well ausplattiert.
Medium: Komplettes Medium enthält HAM's F12 (Biochrom KG, Berlin) und 10 % foetales Kälberserum (Boehringer Mannheim), die Testsubstanz wird in Medium gelöst, üblicherweise in einer Konzentration von 10⁻⁵ M zugegeben und bei jedem Mediumwechsel erneut zugefügt.
Versuchsdurchführung: Die Behandlung erfolgt vom dritten bis zehnten Tag der Primärkultur, am 9. […] Die dissoziative Extraktion der Proteoglykane aus der Agarose-Schicht wird mit 8M Guanidinium-Hydrochlorid und beigefügten Proteinase-Inhibitoren (Sigma) unter Schütteln bei 4° C über 24 h durchgeführt. Der Überstand wird nach Zentrifugation über eine PD 10 ®Sephadex G 25 Säule in freies und inkorporiertes Sulfat getrennt, dessen Aktivität nach Aliquotierung im β-Szintillationscounter gemessen wird.
Auswertung: Der Parameter für die Matrixproduktion der Chondrozyten ist die Menge synthetisierter Proteoglykane, gemessen als Sulfatinkorporation in cpm. Aus vier Wells pro Gruppe wird der Mittelwert errechnet. Dieser wird durch den Mittelwert der unbehandelten Kontrolle dividiert, und ergibt somit einen Stimulationsfaktor, der bei Stimulation der Matrixsynthese größer 1 ist, bei Hemmung derselben durch Substanzwirkung kleiner 1, und bei unveränderter Matrixsynthese gleich 1 ist.
Als Standard wird Diacerein eingesetzt, das unter dem Markennamen "Artodar" von der Firma Proter bzw. […] Tabelle II

[3] = test system: Matrix Metalloproteasen (MMP); assay: Inhibition of matrix metalloproteases from supernatant of PMA-induced synoviocytes, fluorogenic substrate; type: biochemical, Kaninchen
Excerpt: 3. Inhibierung von Matrix Metalloproteasen (MMP)
Die erfindungsgemäßen Verbindungen zeigten deutliche inhibitorische Wirkungen auf proteolytische Enzyme, die sogenannten Matrix Metalloproteasen. Dies ist von großer Bedeutung, weil diese dem Fachmann an sich bekannten Enzyme am proteolytischen Abbau der intakten Knorpelmatrix entscheidend beteiligt sind.
Kaninchen Synoviocyten (HIG-82; ATCC, Rockville, Maryland, USA) werden in Nährmedium HAM'S F12 (Sigma, Deisenhofen, Deutschland, Katalog Nr. N-6760) mit 10 % fötalem Rinder Serum (Sigma, Deisenhofen, Deutschland, Katalog Nr. F-2442), zusammen mit Penicillin 100 U/ml sowie Streptomycin 100 µg/ml, kultiviert. Nach konfluentem Zellwachstum wird die MMP Expression in serumfreiem HAM'S F12 durch Zugabe von 0,3 µmol/l Phorbol-12-Myristat-13-Acetat induziert. Nach 20 h Inkubationszeit bei 37°C wird der Überstand abgenommen.
Der Überstand wird mit Trypsin (5 µg/ml) aktiviert. Nach 15 Minuten (min) bei 37°C wird die Aktivierung durch Zugabe von 1 mmol/l Phenylmethylsulfonylfluorid (PMSF) beendet und für weitere 10 min nachinkubiert. Das Gesamtvolumen des Ansatzes beträgt 210 µl.
Messung der MMP Aktivität (Lit.: C.G. Knight et al.; FEBS Lett. 296, 263 (1992)):
20 µl des obengenannten Überstandes werden 1:10 verdünnt, und mit 240 µl Puffer (0,1 Tris/HCl pH 7,5; 0,1 M NaCl; 0,01 M CaCl₂; 0,05 % Brij) gemischt. Die Prüfsubstanz wird in der angegebenen Konzentration (s. Tabelle) zugegeben. Nach einer Inkubationszeit von 15 min wird die Reaktion durch Zugabe von 20 µmol/l Fluoreszenz-Substanz ((7-Methoxycoumarin-4-yl)acetyl-pro-Leu-Gly-Leu-[3-(2',4'-dinitrophenyl)-L-2,3-diaminopropionyl]-Ala-Arg-NH₂; Bachem, Heidelberg, Deutschland, Kat. Nr.: M-1895) gestartet. Die Reaktion wird nach 30 min durch Zugabe von 10 mmol/l EDTA beendet. Das Gesamtvolumen des Ansatzes beträgt 320 µl. Als Meßparameter dienen die Fluoreszenzintensitäten bei λex: 328 nm und […]. Um die mögliche Eigenfluoreszens der Prüfsubstanzen zu berücksichtigen, werden die Fluoreszenzintensitäten von Parallel-Messungen ohne Substrat von den Messwerten mit Substrat abgezogen. Alle Operationen erfolgen bei 20°C. Im Kontrollexperiment ohne Hemmstoff wird die Fluoreszenz entsprechen 0 % Hemmung gesetzt, während völlige Auslöschung der Fluoreszenz 100 % Hemmung bedeutet.

TNF-alpha = assay: LPS-stimulated interleukin release from human mononuclear cells, ELISA (TNF-alpha); type: cell-based; settings: 10 µmol/l, 20-22 h, read-out: % Hemmung der Interleukin-Freisetzung
Method: as §1, §2, §3, §4

IL-1alpha = assay: LPS-stimulated interleukin release from human mononuclear cells, ELISA (IL-1alpha); type: cell-based; settings: 10 µmol/l, 20-22 h, read-out: % Hemmung der Interleukin-Freisetzung
Method: as §1, §2, §3, §4

Row | Compound | inhibition at 10 µM (IL-1beta) [%] | Stimulationsfaktor der Proteoglykansynthese (Chondrozyten [1]) | IC50 (Rattenlebermikrosomen) [nM] | Hemmung der MMP ([3]; 30 µM) [%] | other results
1 | CCCCOP(=O)(OCCCC)C(NCc1ccc2c(c1)OCO2)c1cc(C(C)(C)C)c(O)c(C(C)(C)C)c1 (stereo not shown) [Beispiel 31] | 32 | 1,7 | 2180 |  | 
2 | CCOP(=O)(OCC)C(Nc1ccc2c(c1)OCO2)c1cc(C(C)(C)C)c(O)c(C(C)(C)C)c1 (stereo not shown) [Beispiel 61] | 24 | 1,3 |  |  | fold induction at 10 µM (Chondrozyten [2]): 2.9
3 | CCOP(C)(=O)C(Nc1ccc2c(c1)OCO2)c1cc(C(C)(C)C)c(O)c(C(C)(C)C)c1 (stereo not shown) [Beispiel 59] |  |  |  | 43 | Hemmung der MMP ([3]; 10 µM): 19%
4 | CCOP(=O)(OCC)C(c1cc(C(C)(C)C)c(O)c(C(C)(C)C)c1)N1CCCCC1 (stereo not shown) [Beispiel 22] |  |  | 2450 | 12 | inhibition at 10 µM (TNF-alpha): 86%; inhibition at 10 µM (IL-1alpha): 80%; Hemmung der MMP ([3]; 100 µM): 34%; fold induction at 10 µM (Chondrozyten [2]): 1.2
5 | CCCCOP(=O)(OCCCC)C(Nc1ccc2c(c1)OCO2)c1cc(C(C)(C)C)c(O)c(C(C)(C)C)c1 (stereo not shown) [Beispiel 63] | 31 | 1,5 | 240 | 60 | Hemmung der MMP ([3]; 10 µM): 26%
6 | COP(=O)(OC)C(Nc1ccc2c(c1)OCO2)c1cc(C(C)(C)C)c(O)c(C(C)(C)C)c1 (stereo not shown) [Beispiel 60] |  | 1,4 | 710 |  | inhibition at 10 µM (TNF-alpha): 24%
7 | CCOP(=O)(OCC)C(c1cc(C(C)(C)C)c(O)c(C(C)(C)C)c1)N1CCOCC1 (stereo not shown) [Beispiel 23] |  |  | 2450 |  | inhibition at 10 µM (TNF-alpha): 70%; inhibition at 10 µM (IL-1alpha): 75%
8 | CCOP(=O)(OCC)C(Nc1ccc(C=CC(=O)OC)cc1)c1cc(C(C)(C)C)c(O)c(C(C)(C)C)c1 (stereo not shown) [Beispiel 67] | 26 | 1,9 | 2220 |  | 
9 | CCOP(=O)(OCC)C(Nc1ccc(NC(c2cc(C(C)(C)C)c(O)c(C(C)(C)C)c2)P(=O)(OCC)OCC)cc1)c1cc(C(C)(C)C)c(O)c(C(C)(C)C)c1 (stereo not shown) [Beispiel 74] |  | 3,8 | 1250 | 47 | Hemmung der MMP ([3]; 10 µM): 20%; Hemmung der MMP ([3]; 50 µM): 74%
10 | CCCOP(=O)(OCCC)C(Nc1ccc2c(c1)OCO2)c1cc(C(C)(C)C)c(O)c(C(C)(C)C)c1 (stereo not shown) [Beispiel 62] | 46 | 1,2 | 240 | 68 | Hemmung der MMP ([3]; 10 µM): 23%; Hemmung der MMP ([3]; 100 µM): 83%; fold induction at 10 µM (Chondrozyten [2]; agarose cell culture, test substance usually 10⁻⁵ M, mean sulfate incorporation divided by untreated control (>1 = stimulation)): 1.2
11 | CCOP(=O)(OCC)C(c1cc(C(C)(C)C)c(O)c(C(C)(C)C)c1)N1CCN(c2ccccc2)CC1 (stereo not shown) [Beispiel 25] |  |  | 2450 |  | inhibition at 10 µM (TNF-alpha): 36%; inhibition at 10 µM (IL-1alpha): 60%
12 | COP(=O)(OC)C(NC1CCCCC1)c1cc(C(C)(C)C)c(O)c(C(C)(C)C)c1 (stereo not shown) [Beispiel 7] |  |  | 2400 |  | inhibition at 10 µM (IL-1alpha): 21%
13 | CCCCOP(=O)(OCCCC)C(Nc1ccc(Cl)cc1)c1cc(C(C)(C)C)c(O)c(C(C)(C)C)c1 (stereo not shown) [Beispiel 45] |  | 1,2 | 6150 |  | inhibition at 10 µM (IL-1alpha): 22%
14 | CCOP(=O)(OCC)C(Nc1ncccn1)c1cc(C(C)(C)C)c(O)c(C(C)(C)C)c1 (stereo not shown) [Beispiel 80] |  | 2,4 | 2900 |  | inhibition at 10 µM (TNF-alpha): 21%
15 | CCOP(=O)(OCC)C(c1cc(C(C)(C)C)c(O)c(C(C)(C)C)c1)N(C)c1ccccc1 (stereo not shown) [Beispiel 53] | 53 | 1,7 | 2030 | 11 | Hemmung der MMP ([3]; 100 µM): 25%
16 | CC(C)(C)c1cc(C(Nc2ccc3c(c2)OCO3)[PH](=O)O)cc(C(C)(C)C)c1O (stereo not shown) [Beispiel 3] |  | 1,3 | 790 | 20 | Hemmung der MMP ([3]; 10 µM): 3%; Hemmung der MMP ([3]; 100 µM): 83%
17 | CCCCNC(c1cc(C(C)(C)C)c(O)c(C(C)(C)C)c1)P(=O)(OCC)OCC (stereo not shown) [Beispiel 6] |  | 1,4 | 2250 |  | fold induction at 10 µM (Chondrozyten [2]): 1.2
